Measured values taken from paper PMC8495876 (ACS Omega, 2021).

Legend:
[1] = target: human lysosomal α-glucosidase (Homo sapiens, UniProt P10253); experiment: α-glucosidase inhibitory activity assay; type: biochemical; details: 1.43 mM compound; lysosomal α-glucosidase extracts; pH 4.0, 37 °C
α-glucosidase = details: previously reported; cited from earlier work

Molecule | α-glucosidase inhibition (%) [1] [%] | IC50 (α-glucosidase) [µM]
1-(α-D-Glucopyranosyl)-4-cyano-phenyl-[1,2,3]-triazole [AGT3] | 46 | –
1-(α-D-Glucopyranosyl)-4-nitro-phenyl-[1,2,3]-triazole [AGT5] | 57 | –
O=c1cc(-c2ccccc2)oc2cc(O)cc(O)c12 [chrysin] | – | 77
